Assay results reported in PMC6411751, “Use of machine learning to identify novel, behaviorally active antagonists of the insect odorant receptor co-receptor (Orco) subunit” (Scientific Reports, 2019).

Each compound was assayed against T1, Agam\Orco (Anopheles gambiae, UniProt Q7QCC7) (assay: cell-based). Conditions: not given.
T1 construct: expressed in transfected cells; host or cells: Xenopus laevis oocytes injected with capped cRNA (plasmid pT7TS, gift of L. Zwiebel)
T1 sequence (Q7QCC7 1-478): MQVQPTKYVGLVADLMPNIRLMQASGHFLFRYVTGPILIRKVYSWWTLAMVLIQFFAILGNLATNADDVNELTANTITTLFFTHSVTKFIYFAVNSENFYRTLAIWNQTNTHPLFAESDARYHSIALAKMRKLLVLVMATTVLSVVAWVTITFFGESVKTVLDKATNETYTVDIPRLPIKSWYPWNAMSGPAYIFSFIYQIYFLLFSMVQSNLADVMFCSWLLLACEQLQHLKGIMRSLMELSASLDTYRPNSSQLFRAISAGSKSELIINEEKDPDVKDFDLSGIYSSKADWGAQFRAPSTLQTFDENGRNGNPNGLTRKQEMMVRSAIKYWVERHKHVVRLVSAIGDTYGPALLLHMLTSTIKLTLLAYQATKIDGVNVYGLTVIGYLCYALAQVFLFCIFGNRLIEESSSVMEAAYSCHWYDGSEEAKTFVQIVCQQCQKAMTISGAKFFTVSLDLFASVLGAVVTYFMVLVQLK
Type: cell-based
Experimental: A 2 hr incubation with collagenase B (Roche) was used to remove follicle cells from oocytes. Capped cRNA for Agam\Orco was synthesized using mMessage mMachine kits (Thermo Fisher Scientific). 25 ng of cRNA was injected into stage V–VI oocytes, followed by a 2–5 day incubation at 18 °C in Barth’s saline (in mM: 88 NaCl, 1 KCl, 2.4 NaHCO3, 0.3 CaNO3, 0.41 CaCl2, 0.82 MgSO4, 15 HEPES, pH 7.4, and 0.05 g/L tetracycline, 0.05 g/L ciprofloxacin, 0.1 g/L amikacin) prior to electrophysiological recordings.
(§1) An automated parallel electrophysiology system (OpusExpress 6000 A, Molecular Devices) was used to record Orco agonist (OLC12) or odorant induced currents under two-electrode voltage clamp. Oocytes were perfused with ND96 (in mM: 96 NaCl, 2 KCl, 1 CaCl2, 1 MgCl2, 5 HEPES, pH 7.4). DMSO was used to prepare 1 M or 100 mM stock solutions of test compounds, which were then diluted in ND96 on the day of the experiment. Compounds were applied at a flow rate of 1.0 mL/min, with extensive washing in ND96 at 4.6 mL/min between applications. Micropipettes with resistances of 0.2–2.0 MΩ were filled with 3 M KCl. The holding potential was −70 mV. Current responses were filtered (4-pole, Bessel, low pass) at 20 Hz (−3 db) and sampled at 100 Hz. OpusXpress 1.1 software (Molecular Devices) was used to capture and store current responses.
To measure antagonist activity at Orco, Agam\Orco was activated by the Orco agonist OLC12[34]. […] The current response to OLC12 in the presence of antagonist candidate was compared to the mean of the preceding two responses to OLC12 alone and presented as a percentage[34],[35]. This value was then normalized to the value obtained when the assay was run in the absence of antagonist candidate (sham).
During development of the training panel (Fig. 2, Tables S1 and S2), all compounds not previously known to be Orco antagonists were tested at a concentration of 3 mM. […] Concentration-inhibition curves were constructed for all compounds eliciting >20 percent inhibition at 3 mM. The same concentration and criteria were used during screening of predicted actives (Fig. 4D) and predicted inactives (Fig. 5C).
Clampfit 9.1 software (Molecular Devices) was used to perform initial analysis of electrophysiological data. Prism 7 (Graphpad) was used for curve fitting. Concentration-inhibition data were fit to the equation: I = Imax/(1 + (X/IC50)^n) where I represents the current response at a given concentration of inhibitor, X; Imax is the maximal response in the absence of inhibitor; IC50 is the concentration of inhibitor present that allows a half maximal response from OLC12; n is the apparent Hill coefficient.
With `CCCCO` [1-butanol] the “inhibition of Agam\Orco (OLC12 response) at 3 mM” value (“inhibition of Agam\Orco” for short) was at most 20%.
`CC(C)c1cccc(C(C)C)c1O` [propofol, 2,6-diisopropylphenol, reference compound] was tested, and the IC50 was 47 ± 3 µM and the Orco antagonist activity was “has Orco antagonist activity”.
For `Cc1ccc(O)c(C(C)(C)C)c1` [2-tert-butyl-4-methylphenol], the “more potent than BMP” value was 2 fold.

Same assay, conditions: 3 mM compound, 30 µM OLC12
In the case of `c1cscn1` [thiazole], the “inhibition of Agam\Orco” value is reported as at most 20%.
With `CN(C)C` [trimethylamine] the “inhibition of Agam\Orco” value was at most 20%.

Same assay, conditions: Agam\Orco IC50 compared with BMP
In the case of `Cc1cc(C)c(O)c(C)c1` [2,4,6-trimethylphenol], the “loss of potency relative to BMP” value is reported as 4.5 fold.
In the case of `CC(C)(C)c1cccc(C(C)(C)C)c1O` [2,6-di-tert-butylphenol], the “change in potency relative to BMP” value is reported as “slightly decreased potency”.

Same assay, conditions: Table 2; inhibition of Agam\Orco activated by 30 µM OLC12; mean ± SEM (n = 3–9); read-out: IC50
`Cc1ccc(O)c(C(C)(C)C)c1` [2-tert-butyl-4-methylphenol] was tested, and the IC50 was 25 ± 3 µM.
In the case of `Cc1cc(C)c(O)c(C)c1` [2,4,6-trimethylphenol], the IC50 is reported as 212 ± 29 µM.
`CC(C)c1ccc(O)c(C(C)C)c1` [C00014, 2,4-diisopropylphenol] was tested, and the IC50 was 37 ± 7 µM.
For `CC(C)(C)c1cccc(C(C)(C)C)c1O` [2,6-di-tert-butylphenol], the IC50 was 92 ± 9 µM.

Same assay, conditions: Table S1; training actives; Agam\Orco activated by 30 µM OLC12; mean ± SEM (n = 3-8); read-out: IC50
For `NCCc1c[nH]c2ccccc12` [tryptamine], the IC50 was 48 ± 10 µM.
Work on `CC1(O)CSC(C)(O)CS1` (centres unmarked) [2,5-dimethyl-2,5-dihydroxy-1,4-dithiane] yielded an IC50 of 4860 ± 1270 µM.
`COc1ccc(OC)cc1` [1,4-dimethoxybenzene] was tested, and the IC50 was 1100 ± 172 µM.
Work on `CCOC(=O)C=Cc1c(Cl)cccc1Cl` [ethyl 2,6-dichlorocinamate] yielded an IC50 of 93 ± 11 µM.
With `C=C(C)[C@H]1CC=C(C)C(=O)C1` [(S)-carvone] the IC50 was 1280 ± 92 µM.
Work on `C=C(C)C1CC=C(C)[C@@H](O)C1` (single isomer, unassigned; (-)) [(-)-carveol] yielded an IC50 of 1030 ± 117 µM.
With `Cc1ccccc1` [toluene] the IC50 was 1600 ± 243 µM.
For `CC(C)=CCC[C@@H](C)CC=O` [(R)-(+)-citronellal], the IC50 was 651 ± 58 µM.
`CC1CC[C@H](C(C)C)[C@@H](O)C1` (single isomer, unassigned; (+)) [(+)menthol] gave an IC50 of 443 ± 72 µM.
With `Brc1ccccc1` [bromobenzene] the IC50 was 1160 ± 143 µM.
`CC1CCC(C(C)C)C(O)C1` (single isomer, unassigned; (-)) [(-)menthol] showed an IC50 of 433 ± 78 µM.
With `CC(C=O)=Cc1ccccc1` [α-methyl cinnamaldehyde] the IC50 was 187 ± 40 µM.
For `SCCCCCCCCCS` [1,9-nonanedithiol], the IC50 was 1600 ± 299 µM.
With `COc1ccccc1OC` [veratrole] the IC50 was 5420 ± 845 µM.
In the case of `CCCCC1Cc2ccccc2C1=O` (centres unmarked) [2-butyl-1-indanone], the IC50 is reported as 289 ± 28 µM.
Compound `CCCCc1ccc(NC(=O)CSc2nnc(-c3ccccn3)n2CC)cc1` [OLC15, N-(4-butylphenyl)-2-((4-Et-5-(2-pyridinyl)-4H-1,2,4-triazol-3-yl)thio)acetamide, reference compound] has an IC50 of 10 ± 2 µM.
`O=C(/C=C/c1ccccc1)OCc1ccccc1` [benzyl cinnamate] gave an IC50 of 492 ± 64 µM.
(−)-terpinen-4-ol was tested, and the IC50 was 678 ± 78 µM.

Same assay, conditions: read-out: inhibition of Agam\Orco (OLC12 response) at 3 mM; 3 mM compound, 30 µM OLC12
With `CCCCC/C=C\C/C=C\CCCCCCCC(=O)O` [linoleic acid] the inhibition at 3000 µM was at most 20%.
Work on `N[C@@H](Cc1ccccc1)C(=O)O` [phenylalanine] yielded an inhibition at 3000 µM of at most 20%.
`O=C1CCCC1` [cyclopentanone] showed an inhibition at 3000 µM of at most 20%.
With `CC1=CCC2CC1C2(C)C` (stereo not drawn) [α-pinene] the inhibition at 3000 µM was at most 20%.
`CCOC(=O)CC` [ethyl propionate] gave an inhibition at 3000 µM of at most 20%.
`Cc1ccnc2ccccc12` [4-methylquinoline] showed an inhibition at 3000 µM of at most 20%.

These compounds were tested on Cqui\Or21 + Cqui\Orco (assay: Inhibition of heteromeric OR in oocytes (3-methylindole or OLC12 activation)). Conditions: Orco agonist activation of Cqui\Or21 + Cqui\Orco.
Type: cell-based, Culex quinquefasciatus
Experimental: as §1
(§2) To measure the ability of Orco antagonists to inhibit odorant activation, oocytes expressing heteromeric ORs (Orco + ORX) were exposed to a 30 sec application of odorant followed by a 20 min wash. Oocytes were then exposed to a 90 sec application of Orco antagonist, immediately followed by a 30 sec co-application of Orco antagonist and odorant. The current response to odorant in the presence of Orco antagonist was compared to the preceding response to odorant alone and represented as a percentage. This value was then normalized to the value obtained when the assay was run in the absence of antagonist (sham).
(§3) Figure S3. Effects of Orco antagonists on heteromeric ORs. […]
(§4) heteromeric complexes of odorant specificity subunits and Orco. The Orco antagonists tested were 3-isopropyl-6-methyl-catechol (3 I6 MC), a potent compound from the input training set, and two compounds id e ntified in Fig u re 4 an d Ta b le 1 : 2-tert-butyl-6-methylphenol (B MP ) and linalyl formate (LF) . These compounds were tested for antagonist activity against odorant activation of three ORs from Anopheles gambiae (Agam\Or28 + Agam\Orco, Agam\Or39 + A ga m\Orco, Agam\Or65 + A ga m\Orco), o ne O R fro m Culex quinquefasciatus, the southern house mosquito (Cq u i\Or21 + Cqui\Orco) an d on e O R f ro m Drosophila melanogaster (Dme l\Or35a + Dmel\Orco). Each OR was activated by its cognate odorant agonist applied at an approximate EC50 concentration. […]
(§5) SEM (n = 4). […] Statistical significance of the data in each panel was assessed by one-way analysis of variance followed by Dunnett’s multiple comparison test using the pre-normalized values for each antagonist compared to the values obtained in the sham recordings (*, p < 0 .0 5; **, p < 0. 01; ***, p < 0 . 00 1 ).
For `CCn1c(SCC(=O)Nc2ccc(C(C)C)cc2)nnc1-c1ccncc1` [OLC12, 2-((4-Ethyl-5-(4-pyridinyl)-4H-1,2,4-triazole-3-yl)sulfanyl)-N-(4-isopropylphenyl)acetamide, reference compound], the “approximate EC25” value was about 3 µM.

The compounds below were run against T2, Dmel\Or35a + Dmel\Orco (Drosophila melanogaster, UniProt Q9VNB5) (assay: Inhibition of heteromeric OR in oocytes (hexanol or OLC12 activation)). Conditions: Orco agonist activation of Dmel\Or35a + Dmel\Orco.
T2 construct: expressed in transfected cells; host or cells: Xenopus laevis oocytes
T2 sequence (Q9VNB5 1-486): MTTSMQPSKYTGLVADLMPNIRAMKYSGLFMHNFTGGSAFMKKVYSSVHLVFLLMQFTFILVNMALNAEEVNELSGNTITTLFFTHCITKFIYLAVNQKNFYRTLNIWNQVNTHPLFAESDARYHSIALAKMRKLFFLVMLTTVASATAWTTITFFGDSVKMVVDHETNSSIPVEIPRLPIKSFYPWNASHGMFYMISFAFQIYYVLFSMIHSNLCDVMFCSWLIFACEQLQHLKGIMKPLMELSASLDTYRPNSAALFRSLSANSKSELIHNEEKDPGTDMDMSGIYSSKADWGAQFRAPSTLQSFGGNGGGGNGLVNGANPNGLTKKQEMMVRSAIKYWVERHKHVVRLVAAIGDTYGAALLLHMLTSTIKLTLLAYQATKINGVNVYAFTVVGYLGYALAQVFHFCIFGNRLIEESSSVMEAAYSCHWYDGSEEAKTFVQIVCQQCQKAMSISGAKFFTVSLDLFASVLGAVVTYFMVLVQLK
T2 sequence (Q9V3Q2 1-409 partner): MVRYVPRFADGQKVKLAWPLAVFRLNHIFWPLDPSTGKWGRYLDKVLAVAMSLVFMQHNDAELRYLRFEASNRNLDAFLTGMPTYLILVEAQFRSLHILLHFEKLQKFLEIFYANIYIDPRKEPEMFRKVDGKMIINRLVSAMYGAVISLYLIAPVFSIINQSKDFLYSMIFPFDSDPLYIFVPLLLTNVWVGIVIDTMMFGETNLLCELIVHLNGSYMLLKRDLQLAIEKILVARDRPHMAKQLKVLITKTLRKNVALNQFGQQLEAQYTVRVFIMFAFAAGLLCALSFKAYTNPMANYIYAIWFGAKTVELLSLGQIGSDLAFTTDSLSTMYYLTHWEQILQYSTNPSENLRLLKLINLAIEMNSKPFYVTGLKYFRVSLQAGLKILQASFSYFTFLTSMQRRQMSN
Type: cell-based
Experimental: as §1, §2, §3, §4, §5
`CCn1c(SCC(=O)Nc2ccc(C(C)C)cc2)nnc1-c1ccncc1` [OLC12, 2-((4-Ethyl-5-(4-pyridinyl)-4H-1,2,4-triazole-3-yl)sulfanyl)-N-(4-isopropylphenyl)acetamide, reference compound] was tested, and the “approximate EC25” value was about 10 µM.
